In ChEMBL document CHEMBL1126105, “Dihydroxynitrobenzaldehydes and hydroxymethoxynitrobenzaldehydes: synthesis and biological activity as catechol-O-methyltransferase inhibitors” (J Med Chem, 1992):

How the values were obtained:
[1] = biological target: T1, Catechol O-methyltransferase (Sus scrofa) (UniProt Q99028); test: Compound was evaluated for reversible inhibition of Catechol O-methyltransferase with variable AdoMet and saturating catechol as substrate (uncompetitive inhibition)
T1 sequence (whole entry): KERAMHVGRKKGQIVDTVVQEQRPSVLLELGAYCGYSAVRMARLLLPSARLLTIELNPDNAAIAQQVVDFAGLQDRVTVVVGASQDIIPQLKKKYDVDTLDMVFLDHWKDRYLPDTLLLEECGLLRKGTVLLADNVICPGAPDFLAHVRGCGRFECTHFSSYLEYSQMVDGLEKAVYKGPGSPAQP

[2] = biological target: T2, Catechol O-methyltransferase (Sus scrofa, UniProt Q99028); test: In vitro inhibition of Catechol-O-methyltransferase (COMT) from isolated partially purified pig liver enzyme
T2 sequence (Q99028 whole entry): T1 sequence (whole entry)

[3] = biological target: T1, Catechol O-methyltransferase (Sus scrofa)
Description: (§1) Compound was evaluated for reversible inhibition of Catechol O-methyltransferase with saturating AdoMet and variable catechol as substrate (mixed inhibition)

[4] = biological target: T1, Catechol O-methyltransferase (Sus scrofa); remark: listed apart in the source
Description: as §1

[5] = biological target: T1, Catechol O-methyltransferase (Sus scrofa); test: Compound was evaluated for reversible inhibition of COMT with saturating AdoMet and variable catechol as substrate (mixed inhibition)
[6] = biological target: T1, Catechol O-methyltransferase (Sus scrofa); remark: listed apart in the source
[7] = biological target: T2, Catechol O-methyltransferase; test: Compound was evaluated for reversible inhibition of Catechol O-methyltransferase with saturating AdoMet and variable catechol as substrate (Non-competitive inhibition)
[8] = biological target: T2, Catechol O-methyltransferase; test: Compound was evaluated for reversible inhibition of Catechol O-methyltransferase with variable AdoMet and saturating catechol as substrate (uncompetitive inhibition)

SMILES | KIs [1] [nM] | IC50 [2] [µM] | KIs [3] [µM] | KII [4] [nM] | KII [5] [nM] | KII [6] [µM] | Ki [7] [µM] | Ki [8] [µM]
O=Cc1ccc([N+](=O)[O-])c(O)c1O | 538 | 1.5 | 0.478 | 145 | – | – | – | –
O=Cc1ccc(O)c(O)c1[N+](=O)[O-] | 678 | 1.5 | 0.497 | – | 168 | – | – | –
O=Cc1cc(O)c(O)c([N+](=O)[O-])c1 [3,4-DIHYDROXY-5-NITROBENZALDEHYDE] | – | 2 | 0.816 | 138 | – | 1.38e-07 | – | –
O=Cc1c([N+](=O)[O-])ccc(O)c1O | – | 10 | 4.77 | 909 | – | – | – | –

More lines, in order of falling IC50 [2], values ahead:

KIs [1] [nM] | IC50 [2] [µM] | KIs [3] [µM] | KII [4] [nM] | KII [5] [nM] | KII [6] [µM] | Ki [7] [µM] | Ki [8] [µM] | SMILES
– | 34 | – | – | – | – | 17.2 | 13.5 | COc1c(O)cc(C=O)cc1[N+](=O)[O-]
– | 8.5 | 2.69 | 921 | – | – | – | – | O=Cc1cc(O)c(O)cc1[N+](=O)[O-]
7770 | 2.1 | 1.2 | 231 | – | – | – | – | O=Cc1cc([N+](=O)[O-])cc(O)c1O
